Source: patent US4394388A, “Method for the control of cattle grubs employing m-phenoxybenzyl and .alpha ” (American Cyanamid Company, priority 1981, dated 1983)

Test system: Cuterebra sp.
Assay: In vivo larvicidal activity against Cuterebra sp. in artificially infested mice (dermal dip)
Settings: mice infested with 5 newly-hatched larvae, body dipped in emulsion 48 h later, larvae examined four days after treatment; for Dermal (mice) Dosage % LC50: concentration killing 50% of larvae; for Dermal (mice) Dosage % LC90: concentration killing 90% of larvae
Protocol: The larvidical activity of the compounds of the invention may be conveniently evaluated by a method accepted by the U.S. Agricultural Research Service, in which mice infected with Cuterebra spp. are treated topically with the compounds under evaluation.
White mice are artificially infested nasally, buccally, or ocularly with 5 newly-hatched larvae of Cuterebra sp. For dermal tests, 48 hours later a plastic collar is placed around the neck of each male mouse, and the portion of the body behind the collar is dipped in 200 ml of an emulsion of a test compound. A standard emulsifiable concentrate consists of 25 parts of test compound, 65 parts of xylene and 10 parts octylphenoxy polyethoxy ethanol of average molecular weight equal to 628 and having from 9 to 10 ethylene oxide units.
The skin of each mouse is examined carefully for encapsulated live larvae four days after treatment. Effectiveness of the treatments is determined by comparing numbers of larvae encapsulated in treated mice with numbers found in untreated control mice. Usually 3 mice/concentration are treated. if mice or the larvae are killed at the initial concentration of 1%, lower concentrations (0.6, 0.3, 0.2, 0.1%, etc.) are tested until there is no systemic activity or the mice survive.
Mortality data are subjected to log-prohibit analysis in order to determine dosages or concentrations that kill 50 or 90% of the larvae.

Q: For CC(C)C(C(=O)OC(C#N)c1cccc(Oc2ccccc2)c1)c1ccc(OC(F)F)cc1 (racemic) [(±)-α-cyano-m-phenoxybenzyl (+)-α-isopropyl-4-difluoromethox] [(±)-α-Cyano-m-phenoxybenzyl(+)-α-isopropyl 4-difluoromethoxyphenylacetate], which “Dermal (mice) Dosage % LC50” value is on record?
A: The value was “.0030%”.

Q: And the “Dermal (mice) Dosage % LC90” value?
A: Its value is “.0056%”.

Q: Which “Dermal (mice) Dosage % LC50” value does the source give for CC(C)C(C(=O)OC(C#N)c1cccc(Oc2ccccc2)c1)c1ccc(OC(F)F)cc1 (stereo not drawn) [α-cyano-m-phenoxybenzyl α-isopropyl-4-difluoromethoxyphenyla] [α-Cyano-m-phenoxybenzyl α-isopropyl-4-difluoromethoxyphenylacetate] here?
A: Its value is “.0067%”.

Q: What about the “Dermal (mice) Dosage % LC90” value of the same molecule?
A: Its value is “.015%”.
